According to BindingDB's records for patent WO2025049746 (Eikon Therapeutics, 2025):
pIC50: −log10 of the molar value.

Key:
[1] = biological target: Bifunctional 3'-5' exonuclease/ATP-dependent helicase WRN (Homo sapiens, UniProt Q14191); test: ADP-Glo Kinase Assay
Experimental: ATPase activity was measured using the ADP-Glo Kinase Assay following the manufacturers recommended protocol.

[2] = biological target: T1, Bifunctional 3'-5' exonuclease/ATP-dependent helicase WRN [480-1251] (UniProt Q14191); test: Biochemical Activity Assays
T1 construct: 480-1251
T1 sequence (Q14191 480-1251): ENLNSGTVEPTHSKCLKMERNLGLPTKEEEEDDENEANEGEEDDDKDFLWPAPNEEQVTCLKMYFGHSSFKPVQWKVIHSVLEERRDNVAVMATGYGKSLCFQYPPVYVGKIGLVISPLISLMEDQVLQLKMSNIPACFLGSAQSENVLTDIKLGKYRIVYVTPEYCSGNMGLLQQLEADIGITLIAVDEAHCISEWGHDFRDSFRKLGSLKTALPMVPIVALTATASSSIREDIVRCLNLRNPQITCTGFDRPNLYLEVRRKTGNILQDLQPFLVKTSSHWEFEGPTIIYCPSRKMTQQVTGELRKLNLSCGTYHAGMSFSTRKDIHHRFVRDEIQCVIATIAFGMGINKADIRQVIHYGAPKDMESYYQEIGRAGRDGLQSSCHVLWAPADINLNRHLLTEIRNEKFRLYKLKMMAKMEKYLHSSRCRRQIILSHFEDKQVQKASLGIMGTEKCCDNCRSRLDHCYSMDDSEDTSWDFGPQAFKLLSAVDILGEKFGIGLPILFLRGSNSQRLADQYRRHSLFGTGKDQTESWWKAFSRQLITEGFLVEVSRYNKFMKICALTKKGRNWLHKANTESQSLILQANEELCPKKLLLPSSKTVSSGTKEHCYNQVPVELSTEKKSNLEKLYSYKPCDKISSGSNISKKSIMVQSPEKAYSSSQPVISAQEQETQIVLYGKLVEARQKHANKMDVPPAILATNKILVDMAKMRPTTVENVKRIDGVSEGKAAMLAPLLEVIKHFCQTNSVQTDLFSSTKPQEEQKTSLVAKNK
Experimental: The pure fractions were pooled and desalted/buffer exchanged into storage buffer using a HiTrap desalting column. […] First, WRN alone was pre-incubated with DMSO or compound of interest for 15 minutes. To initiate the reaction, ATP, dsDNA substrate, and ssDNA competitor (ssDNA_comp: […]) were added and incubated at room temperature for 20 minutes at which point DNA unwinding activity was monitored by measuring Cy3 fluorescence. After obtaining the reading, the ATPase activity was measured using the ADP-Glo Kinase Assay following the manufacturers recommended protocol. […] Compounds were assayed in a 10-point dose response in duplicate at a 1% DMSO final assay concentration.

Sequence of Bifunctional 3'-5' exonuclease/ATP-dependent helicase WRN (Q14191 whole entry): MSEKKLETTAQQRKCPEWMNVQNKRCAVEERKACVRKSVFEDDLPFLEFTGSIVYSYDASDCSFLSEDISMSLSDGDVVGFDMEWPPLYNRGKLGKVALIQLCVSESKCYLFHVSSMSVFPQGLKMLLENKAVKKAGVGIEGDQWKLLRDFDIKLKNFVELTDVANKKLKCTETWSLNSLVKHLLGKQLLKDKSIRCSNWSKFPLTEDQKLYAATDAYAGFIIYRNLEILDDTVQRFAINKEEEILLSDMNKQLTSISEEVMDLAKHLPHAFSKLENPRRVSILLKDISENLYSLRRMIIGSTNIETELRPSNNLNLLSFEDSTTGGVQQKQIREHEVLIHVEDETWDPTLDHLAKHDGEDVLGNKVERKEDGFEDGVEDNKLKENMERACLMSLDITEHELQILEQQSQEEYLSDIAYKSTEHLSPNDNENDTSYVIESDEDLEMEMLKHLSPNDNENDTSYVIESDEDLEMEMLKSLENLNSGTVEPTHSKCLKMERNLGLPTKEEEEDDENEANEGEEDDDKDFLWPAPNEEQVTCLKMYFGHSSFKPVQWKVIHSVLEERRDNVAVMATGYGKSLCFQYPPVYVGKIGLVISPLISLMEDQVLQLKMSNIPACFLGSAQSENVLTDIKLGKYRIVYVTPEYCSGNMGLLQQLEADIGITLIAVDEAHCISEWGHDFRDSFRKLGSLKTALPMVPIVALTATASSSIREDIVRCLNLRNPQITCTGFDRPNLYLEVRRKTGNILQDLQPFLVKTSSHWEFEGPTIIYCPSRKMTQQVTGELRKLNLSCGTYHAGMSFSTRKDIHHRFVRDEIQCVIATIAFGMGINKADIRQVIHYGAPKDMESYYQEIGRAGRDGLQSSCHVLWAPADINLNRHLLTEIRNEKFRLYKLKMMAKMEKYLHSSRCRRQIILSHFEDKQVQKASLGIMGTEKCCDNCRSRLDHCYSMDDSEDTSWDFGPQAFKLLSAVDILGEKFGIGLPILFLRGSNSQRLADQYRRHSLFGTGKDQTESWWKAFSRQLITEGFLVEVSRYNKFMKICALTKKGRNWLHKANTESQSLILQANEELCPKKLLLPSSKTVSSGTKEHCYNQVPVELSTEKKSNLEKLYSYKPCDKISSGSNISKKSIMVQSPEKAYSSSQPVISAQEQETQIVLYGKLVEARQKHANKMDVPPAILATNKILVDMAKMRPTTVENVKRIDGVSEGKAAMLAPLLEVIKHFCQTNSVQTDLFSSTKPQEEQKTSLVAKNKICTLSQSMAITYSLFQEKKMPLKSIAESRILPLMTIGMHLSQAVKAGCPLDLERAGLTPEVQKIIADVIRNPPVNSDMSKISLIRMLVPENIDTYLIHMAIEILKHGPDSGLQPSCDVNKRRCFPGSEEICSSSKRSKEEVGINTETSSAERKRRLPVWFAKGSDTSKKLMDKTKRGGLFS

| pIC50 [1] | pIC50 [2] | Structure (SMILES) |
| --- | --- | --- |
| 7.51 | 7.62 | CCc1c(N2CCN(C(=O)c3ncnc(C)c3O)CC2)c(=O)n2nc(-c3ccc4c(c3)CCOC4)nc2n1CC(=O)Nc1ccc(C(F)(F)F)c2c1CC2 [WO2025049746, Example 98] |
| 7.57 | 7.64 | CCc1c(N2CCN(C(=O)c3ncnc(C)c3O)CC2)c(=O)n2nc(N(C)C)nc2n1CC(=O)Nc1ccc(C(F)(F)F)c2c1CC2 [WO2025049746, Example 104] |
| 6.55 | 6.58 | CCc1c(N2CCN(C(=O)c3ccccc3NS(=O)(=O)C3CC3)CC2)c(=O)n2nc(N(C)C)nc2n1CC(=O)Nc1ccc(C(F)(F)F)c2c1CC2 [WO2025049746, Example 105] |
| 6.38 | 6.56 | CCc1c(N2CCN(C(=O)c3ccccc3NS(C)(=O)=O)CC2)c(=O)n2nc(N(C)C)nc2n1CC(=O)Nc1ccc(C(F)(F)F)c2c1CC2 [WO2025049746, Example 106] |
| 6.80 | 6.89 | CCc1c(N2CCN(C(=O)c3cn(C)nc3O)CC2)c(=O)n2nc(N(C)C)nc2n1CC(=O)Nc1ccc(C(F)(F)F)c2c1CC2 [WO2025049746, Example 107] |
| 7.66 | 7.81 | CCc1c(N2CCN(C(=O)c3nccc4nc[nH]c34)CC2)c(=O)n2nc(N(C)C)nc2n1CC(=O)Nc1ccc(C(F)(F)F)c2c1CC2 [WO2025049746, Example 108] |
| 7.87 | 7.83 | CCc1c(N2CCN(C(=O)c3nc4n(c(=O)c3O)CCOC4)CC2)c(=O)n2nc(N(C)C)nc2n1CC(=O)Nc1ccc(C(F)(F)F)c2c1CC2 [WO2025049746, Example 109] |
| 6.33 | 6.43 | CCc1c(N2CCN(C(=O)c3ccccc3NS(=O)(=O)C3CC3)CC2)c(=O)n2nc(-c3ccc4c(c3)CCOC4)nc2n1CC(=O)Nc1ccc(C(F)(F)F)c2c1CC2 [WO2025049746, Example 110] |
| 6.51 | 6.60 | CCc1c(N2CCN(C(=O)c3ccccc3NS(=O)(=O)C3CC3)CC2)c(=O)n2nc(-c3ccc4c(c3)OCO4)nc2n1CC(=O)Nc1ccc(C(F)(F)F)c2c1CC2 [WO2025049746, Example 111] |
| 7.23 | 7.34 | CCc1c(N2CCN(C(=O)c3ccccc3NS(=O)(=O)C3CC3)CC2)c(=O)n2nc(N3C[C@H]4COC[C@H]4C3)nc2n1CC(=O)Nc1ccc(C(F)(F)F)c2c1CC2 [WO2025049746, Example 112] |
| 6.77 | 6.78 | CCc1c(N2CCN(C(=O)c3ncnc(C)c3O)CC2)c(=O)n2nc(-c3cn4c(n3)COCC4)nc2n1CC(=O)Nc1ccc(C(F)(F)F)cc1Cl [WO2025049746, Example 153] |
| 7.16 | 7.30 | CCc1c(N2CCN(C(=O)c3ncnc(C)c3O)CC2)c(=O)n2nc(-c3cc4n(n3)CCOC4)nc2n1CC(=O)Nc1ccc(C(F)(F)F)cc1Cl [WO2025049746, Example 154] |
| 7.05 | 7.46 | CCc1c(N2CCN(C(=O)c3ncnc(C)c3O)CC2)c(=O)n2nc(-c3cccc4oc(C)nc34)nc2n1CC(=O)Nc1ccc(C(F)(F)F)cc1Cl [WO2025049746, Example 155] |
| 7.28 | 7.43 | CCc1c(N2CCN(C(=O)c3ncnc(C)c3O)CC2)c(=O)n2nc(-c3cccc4sc(C)nc34)nc2n1CC(=O)Nc1ccc(C(F)(F)F)cc1Cl [WO2025049746, Example 156] |
| 7.29 | 7.43 | CCc1c(N2CCN(C(=O)c3ncnc(C)c3O)CC2)c(=O)n2nc(-c3cnc4c(c3)CCO4)nc2n1CC(=O)Nc1ccc(C(F)(F)F)cc1Cl [WO2025049746, Example 157] |
| 7.15 | 7.31 | CCc1c(N2CCN(C(=O)c3ncnc(C)c3O)CC2)c(=O)n2nc(-c3cccc4c3OCC4)nc2n1CC(=O)Nc1ccc(C(F)(F)F)cc1Cl [WO2025049746, Example 158] |

| pIC50 [1] | pIC50 [2] | Structure (SMILES) |
| --- | --- | --- |
| 6.64 | 7.09 | CCc1c(N2CCN(C(=O)c3ncnc(C)c3O)CC2)c(=O)n2nc(-c3cccc4c3CCCO4)nc2n1CC(=O)Nc1ccc(C(F)(F)F)cc1Cl [WO2025049746, Example 159] |
| 7.29 | 7.47 | CCc1c(N2CCN(C(=O)c3ncnc(C)c3O)CC2)c(=O)n2nc(-c3cccc4c3OCCC4)nc2n1CC(=O)Nc1ccc(C(F)(F)F)cc1Cl [WO2025049746, Example 160] |
| 6.28 | 7.08 | CCc1c(N2CCN(C(=O)c3ncnc(C)c3O)CC2)c(=O)n2nc(-c3cncc4c3COCC4)nc2n1CC(=O)Nc1ccc(C(F)(F)F)cc1Cl [WO2025049746, Example 161] |
| 7.09 | 7.19 | CCc1c(N2CCN(C(=O)c3ncnc(C)c3O)CC2)c(=O)n2nc(-c3cnc4c(c3)CCOC4)nc2n1CC(=O)Nc1ccc(C(F)(F)F)cc1Cl [WO2025049746, Example 162] |
| 7.36 | 7.35 | CCc1c(N2CCN(C(=O)c3ncnc(C)c3O)CC2)c(=O)n2nc(-c3ccc4c(c3)COC4(C)C)nc2n1CC(=O)Nc1ccc(C(F)(F)F)cc1Cl [WO2025049746, Example 164] |
| 7.28 | 7.38 | CCc1c(N2CCN(C(=O)c3ncnc(C)c3O)CC2)c(=O)n2nc(-c3ccc4c(c3)C(C)(C)OC4)nc2n1CC(=O)Nc1ccc(C(F)(F)F)cc1Cl [WO2025049746, Example 165] |
| 7.80 | 7.85 | CCc1c(N2CCN(C(=O)c3ncnc(C)c3O)CC2)c(=O)n2nc(-c3cnn4c3CCC4)nc2n1CC(=O)Nc1ccc(C(F)(F)F)cc1Cl [WO2025049746, Example 166] |
| 7.22 | 7.39 | CCc1c(N2CCN(C(=O)c3ncnc(C)c3O)CC2)c(=O)n2nc(-c3cnn4c3CCCC4)nc2n1CC(=O)Nc1ccc(C(F)(F)F)cc1Cl [WO2025049746, Example 167] |
| 7.35 | 7.46 | CCc1c(N2CCN(C(=O)c3ncnc(C)c3O)CC2)c(=O)n2nc(-c3ccc4c(c3)CC(C)O4)nc2n1CC(=O)Nc1ccc(C(F)(F)F)cc1Cl (configuration not stated) [WO2025049746, Example 168] |
| 7.59 | 7.60 | CCc1c(N2CCN(C(=O)c3ncnc(C)c3O)CC2)c(=O)n2nc(-c3cc4c(cc3F)OCC4)nc2n1CC(=O)Nc1ccc(C(F)(F)F)cc1Cl [WO2025049746, Example 169] |
| 7.29 | 7.39 | CCc1c(N2CCN(C(=O)c3ncnc(C)c3O)CC2)c(=O)n2nc(-c3ccc4c(c3)C(C)CO4)nc2n1CC(=O)Nc1ccc(C(F)(F)F)cc1Cl (configuration not stated) [WO2025049746, Example 170] |
| 7.24 | 7.38 | CCc1c(N2CCN(C(=O)c3ncnc(C)c3O)CC2)c(=O)n2nc(-c3cc(C)c4c(c3)CCO4)nc2n1CC(=O)Nc1ccc(C(F)(F)F)cc1Cl [WO2025049746, Example 171] |
| 6.91 | 7.06 | CCc1c(N2CCN(C(=O)c3ncnc(C)c3O)CC2)c(=O)n2nc(-c3ccc4c(c3)C(C)(C)OC4(C)C)nc2n1CC(=O)Nc1ccc(C(F)(F)F)cc1Cl [WO2025049746, Example 172] |
| 7.44 | 7.55 | CCc1c(N2CCN(C(=O)c3ncnc(C)c3O)CC2)c(=O)n2nc(-c3cc(F)c4c(c3)CCO4)nc2n1CC(=O)Nc1ccc(C(F)(F)F)cc1Cl [WO2025049746, Example 173] |
| 7.23 | 7.51 | CCc1c(N2CCN(C(=O)c3ncnc(C)c3O)CC2)c(=O)n2nc(-c3cc4c(cc3C)OCC4)nc2n1CC(=O)Nc1ccc(C(F)(F)F)cc1Cl [WO2025049746, Example 174] |
